The source of these data is PMC6379706, “Characterization of the interactions of chemically-modified therapeutic nucleic acids with plasma proteins using a fluorescence polarization assay” (Nucleic Acids Research, 2018).

In test [1] the target is T1, human serum albumin (Homo sapiens, UniProt P02768).
T1 construct: gene ALB; purchased human albumin, EMD Millipore (Calbiochem)
Briefly: fluorescence polarization, direct titration of dye with protein. Format: binding.

In test [2] the target is T2, transferrin (Homo sapiens, UniProt P02787).
T2 construct: gene TF; purchased from Sigma Aldrich
The test is described as above. The test is classed as binding.

T2 sequence (P02787 20-698): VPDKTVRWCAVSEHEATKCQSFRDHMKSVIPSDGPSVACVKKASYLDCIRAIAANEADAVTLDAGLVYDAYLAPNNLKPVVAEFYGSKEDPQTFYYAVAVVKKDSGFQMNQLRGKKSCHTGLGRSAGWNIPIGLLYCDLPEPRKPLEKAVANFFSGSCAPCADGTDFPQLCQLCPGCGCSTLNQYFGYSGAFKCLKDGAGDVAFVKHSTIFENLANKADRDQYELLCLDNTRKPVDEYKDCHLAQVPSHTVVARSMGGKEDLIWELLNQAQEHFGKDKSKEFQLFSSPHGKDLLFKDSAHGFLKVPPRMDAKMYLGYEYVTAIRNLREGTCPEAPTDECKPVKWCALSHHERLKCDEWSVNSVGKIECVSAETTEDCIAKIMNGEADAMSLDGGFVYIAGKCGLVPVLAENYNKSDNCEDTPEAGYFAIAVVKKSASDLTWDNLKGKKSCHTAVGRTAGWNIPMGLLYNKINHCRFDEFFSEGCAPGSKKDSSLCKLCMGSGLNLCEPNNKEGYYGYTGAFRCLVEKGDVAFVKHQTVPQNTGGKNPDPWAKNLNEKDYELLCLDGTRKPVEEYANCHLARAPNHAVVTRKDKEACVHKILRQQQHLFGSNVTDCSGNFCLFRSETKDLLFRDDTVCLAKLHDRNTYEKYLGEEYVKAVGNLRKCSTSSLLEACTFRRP
T1 sequence (P02768 25-609): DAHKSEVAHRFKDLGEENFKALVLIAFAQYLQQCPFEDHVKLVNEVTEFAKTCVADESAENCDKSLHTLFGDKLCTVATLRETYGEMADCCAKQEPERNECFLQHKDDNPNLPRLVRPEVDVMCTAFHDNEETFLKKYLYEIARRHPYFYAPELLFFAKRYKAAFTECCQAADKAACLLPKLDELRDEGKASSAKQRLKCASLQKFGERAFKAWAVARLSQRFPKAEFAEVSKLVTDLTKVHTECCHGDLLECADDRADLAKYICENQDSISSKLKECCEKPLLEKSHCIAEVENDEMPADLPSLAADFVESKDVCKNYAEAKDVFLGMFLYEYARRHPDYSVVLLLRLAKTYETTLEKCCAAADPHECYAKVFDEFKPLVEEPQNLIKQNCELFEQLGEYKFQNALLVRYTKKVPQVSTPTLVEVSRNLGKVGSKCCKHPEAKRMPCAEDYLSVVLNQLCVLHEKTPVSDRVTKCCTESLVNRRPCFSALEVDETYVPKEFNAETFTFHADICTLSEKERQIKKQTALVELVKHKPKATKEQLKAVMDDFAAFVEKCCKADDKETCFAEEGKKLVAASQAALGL

`N=c1ccc2c(-c3ccc(C(=O)O)cc3C(=O)O)c3ccc(N)c(S(=O)(=O)O)c3oc-2c1S(=O)(=O)O` [Alexa Fluor 488]: the values for the Kd in test [1] and in test [2] were 791 µM and 380 µM, respectively.
Taken in the same sequence, the figures for `CN1/C(=C/C=C/C=C/C2=[N+](CCCCCC(=O)O)c3ccccc3C2(C)C)C(C)(C)c2ccccc21` [Cy5] were 44.8 µM and 46.1 µM.
Taken in the same sequence, the figures for `O=C(O)c1ccccc1-c1c2ccc(=O)cc-2oc2cc(O)ccc12` [fluorescein] were 138 µM and 502 µM.
Taken in the same sequence, the figures for `CN1/C(=C/C=C/C=C/C2=[N+](CCCCCC(=O)O)c3ccc(S(=O)(=O)O)cc3C2(C)C)C(C)(C)c2cc(S(=O)(=O)O)ccc21` [sCy5] were 568 µM and 2020 µM.

As usually defined, the Kd is a measure of binding affinity in units of concentration. Read a high Kd as lower affinity.
